# Key:
# [1] = target: T1, USP8 Rhod domain (Homo sapiens, UniProt P40818); experiment: ProP-PD selection against USP8 Rhod domain; assay type: binding; details: for NGS counts (%): ProP-PD, human disorderome library, GST-tagged Rhod bait, four rounds of selection, Fig. 3A; for max_counts: Total NGS counts; for Counts: fraction of NGS counts for a selection; for Promiscuity: number of baits selections where the peptide has been observed, calculated on the domain level; for Replicates: number of screens against the bait protein in which the peptide has been found; for Specificity: proportion for the current bait of the total NGS read counts of the peptide for all baits screened with this library
# T1 construct: USP8 Rhod (174–317) (UniProt: P40818); GST (cleaved yes); made in house; host or cells: Escherichia coli BL21-Gold (DE3)
# T1 sequence (P40818 174-317): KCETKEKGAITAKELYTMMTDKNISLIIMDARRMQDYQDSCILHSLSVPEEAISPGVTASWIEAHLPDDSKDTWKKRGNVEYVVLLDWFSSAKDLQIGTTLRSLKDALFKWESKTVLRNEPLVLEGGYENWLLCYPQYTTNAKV
# Protocol: We next evaluated the peptide binding of the Rhod domain by ProP-PD selections. […] (February 2025).
# Four rounds of phage selections were carried out using the second generation human disorderome library or the constructed deep mutational scanning library. At least three individual replicates were used for each bait protein. 10 µg of GST-tagged proteins or GST control (diluted in PBS from the stock of proteins kept in the purification elution buffer) were immobilized in 100 µL PBS on a 96-well MaxiSorp (Nunc) plate overnight at 4 °C. The plates were incubated with blocking buffer (with 0.5% BSA in PBS) for 1 h at 4 °C followed by washing with 0.05% Tween 20 in PBS four times. The naïve phage library (10^11 CFU) was diluted in 1/5th volume PEG/NaCl (20% PEG-8000, 0.4 M NaCl) and 1X PBS, incubated on ice for 10 min and centrifuged at 10,000 [drawing 3] g for 10 min. The pellet was resuspended in the volume of PBS (100 µL/ well). The GST-coated control plate was incubated with 100 µL library per well in PBS for 1 h at 4 °C to remove non-specific binders. The supernatant was transferred to the target wells and incubated for 2 h at 4 °C. The wells were washed five times with 0.05% Tween 20 in PBS and the bound phages were eluted with 100 µL per well log-phase E. coli OmniMAX by incubating at 37° C while shaking. After 30 min, M13KO7 helper phages were added and incubated for an additional 45 min. The bacterial cultures were transferred to 1 mL 2YT supplemented with 100 µg/mL carbenicillin, 30 µg/mL kanamycin and 0.3 mM IPTG and grew overnight at 37 °C while shaking. The following day the cultures were centrifuged for 10 min at 2,000 [drawing 4] g, 4 °C. 1/10th volume of 10 [drawing 5] PBS was added to adjust the pH and heated at 65 °C for 10 min. The phage pools from each round were used as in-phages for the next round of selections.
# The samples were prepared for NGS as previously described. […] The PCR products were normalized with 25 µL Mag-bind Total Pure NGS beads (Omega Biotek) and 10 µL of each eluted sample (Qiagen Elution Buffer) was pooled and cleaned-up with a PCR purification kit (Qiagen). The PCR product was confirmed by 2% agarose electrophoresis and the band was extracted with QIAquick Gel extraction Kit (Qiagen) and eluted with 30 µL TE buffer. The dsDNA was quantified using QuantiT PicoGreen dsDNA Assay Kit (Thermo Fisher) and sent for NGS (Illumina MiSeq v3, 1 × 150 bp read setup, 20% PhiX, NGI SciLifeLab facility, Sweden). The NGS data were demultiplexed, adapter regions were trimmed and sequences with an average quality of at least 20 were translated to peptide sequences. The NGS data were analysed using custom Python scripts. The total read NGS counts for each selection experiment of each peptide sequence were compiled and annotated in PepTools (https://slim.icr.ac.uk/tools/peptools/). Since ProP-PD is in essence a competition assay, the possibility of the input phage library influencing the selection outcome was explored. […] Pearson correlation coefficient and p-value were calculated using Python’s SciPy library.
# [2] = target: T1, USP8 Rhod domain; experiment: SPOT array of predicted peptides from known interactors, USP8 Rhod domain; assay type: binding; details: for Percentage (%) normalized to highest intensity and corrected for background: Rhod-Peptide screening, SPOT array of predicted peptides, KIAA1614 positive control = 100
# Description: The results therefore support that the USP8 Rhod domain binds to two distinct types of motifs (Fig. 4A, B). We used the motifs to scan for matching motifs in previously reported interactors using the SLiMSearch algorithm (Supplementary Table S8 A). As there was no clear match for the TET3-type motif except from only one hit, we focused on the KIAA1614-type motif. […] Both TP63 and USP21 are previously reported USP8 substrates, and the interactions may potentially contribute to substrate targeting. […] As the SHANK3 peptides (351-[…]−365 and 392-[…]−406) are closely located in the primary structure of SHANK3, it is tempting to speculate that both motifs contribute to the interactions between the full-length proteins by increasing the local concentration of binding motifs. […] Taken together, we find that the USP8 Rhod domain is a peptide binding domain that can be bound by peptides of two distinct types of motifs, with the Rx[LI]xGxxxPxxL motif and variants thereof being found in known USP8 substrates.
# SPOT array alanine scanning of peptides was designed, and cellulose-bound peptides were synthesized using Fluorenylmethyloxycarbonyl (Fmoc) solid phase synthesis with a MultiPep synthesizer (INTAVIS Peptide Services, Tübingen, Germany). The membranes of predicted peptides were purchased by JPT Peptide Technologies (Berlin, Germany). The membranes were incubated with blocking buffer containing 5% skim milk in TBST (50 mM Tris, 150 mM NaCl pH 7.5, 0.05% Tween-20) for two hours at room temperature. The blocked membranes were incubated with GST-tagged proteins (100 µM for MIT domain and 150 µM for the Rhodanese domain) in blocking buffer overnight at 4 °C. After rinsed with TBST the membranes were incubated with HRP-conjugated anti-GST antibody (Cytiva, RPN1236; 1:3000 dilution) in blocking buffer for 1 h at 4 °C and subsequently rinsed with TBST to remove any excess antibody. The ECL reagent (Clarity Max Western ECL substrate, 1705062, BioRad) was used for chemiluminescence read-out with the ChemiDoc Imaging system (BioRad). The images were analysed with Fiji (ImageJ2 version 2.9.0). SLiMSearch4 was used to design the peptide arrays with known interactors predicted to contain the motifs. The background signal intensity was subtracted, and the corrected signal intensities were normalized to the positive control and presented as percentage.
Substance,Percentage (%) normalized to highest intensity and corrected for background [2] [%],further results
"YDTLIIRDYTQSSSSL [GRM5, Metabotropic glutamate receptor 5 peptide 1197-1212]",,NGS counts (%) [1]: 0.02%; max_counts [1]: 23; Counts [1]: 0.0001477; Promiscuity [1]: 4; Replicates [1]: 2; Specificity [1]: 0.5417
"LMNFLGDSNPFNLLRM [BCL11B, B-cell lymphoma/leukemia 11B peptide 279-294]",,NGS counts (%) [1]: 0.58%; max_counts [1]: 421; Counts [1]: 0.006181; Promiscuity [1]: 6; Replicates [1]: 3; Specificity [1]: 0.9228
GVSCYRGLTGFGSRS,52,
MPSGSRLRLVELGLGL [Random KIAA1614 Negative control],3.69,
HPNTPRGLSGWEGPS,2.19,
SPARSSPELLPSGV,1.56,
SSNSHRSLDGLSRTQ,5.49,
"QPNHGLALWEAKMKQL [TET3 1701-1716, Methylcytosine dioxygenase TET3 peptide, overlapping]",,max_counts [1]: 7; Counts [1]: 0.00009459587683709846; Promiscuity [1]: 2; Replicates [1]: 3; Specificity [1]: 0.8889
PRPTAPKPLLPRREE,0.0399,
SQLPSSPAQLSCRS,9,
TASSLPRKLLPWEEG,-1.1,
SYAKRRRLAGPSGLA,7,
"HIWHYDEEYLPDASKP [TTBK2, Tau-tubulin kinase 2 peptide 503-518]",,NGS counts (%) [1]: 0.06%; max_counts [1]: 76; Counts [1]: 0.0007473; Promiscuity [1]: 7; Replicates [1]: 2; Specificity [1]: 0.5152
EINLQRNIAGKVVTP,-1.5,
SPLGRPESLLQSNTL,-0.544,
PIPSSSPPPLSSPL,-1.42,
DPSAPPSLLLLLLAQ,0.93,
QPVYSSPRRLNCAE,17,
RAB3IP82 − 95: SSPxxL containing peptide from the RAB3A interacting protein (QPVYSSPRRLNCAE),,"SPOT intensity in words ([2]; GST-tagged Rhod 150 µM, positive control KIAA1614_568 − 583, array of 42 predicted peptides): Weaker signals"

Substance,Percentage (%) normalized to highest intensity and corrected for background [2] [%],further results
PKPPRPASLLRHAPH,5,
PVYSRPTVLMRAPPA,4.31,
HAVSSPDPLLCSDVT,-0.0499,
GMERVLGGLSSPLRLL [KIAA1614 Positive control],100,
TGLTVPPALLRANSD,-1.11,
AQPPTPGVLMVHPSA,-1.3,
CGNQERKLEGSINDI,11,
GPSTSRILSGWEGPS,-0.117,
ASQAVPTFLMATAAA,-0.581,
AQPPAPGVLMAQPLT,-1.21,
DPVESRGLPGPEDDK,-0.521,
SLASVRGLQGRSMSV,5,
AQPLTPGVLMVQPAA,-0.828,
IATYRRLLEGEEHRL,5.44,
RALLERCLKGEGEIE,2,
SLRRLGGFPGPPTLFS,39,
SPEKSSPQALVPNG,1,
SWAAGPGSLLAWLIL,1.45,
